Assay results from US6861395B2, “Method and compositions for inhibiting the growth of microorganisms in metal working fluids” (Arch UK Biocides Limited, priority 2000, dated 2005).

How the values were obtained:
[1] = test system: Yeast and Fungi (Fusarium solani, Penicillium sp., Acremonium strictum, Geotrichum candidum); test: Microbial resistance test based on ASTM E686-91, fungal contamination in synthetic metal working fluid; type: cell-based; settings: for Fungal Contamination after (days) 10: 10 days; for Fungal Contamination after (days) 31: 31 days; for Fungal Contamination after (days) 87: 87 days; for Fungal Contamination after (days) 110: 110 days; as to all read-outs here: key: +++ indicates confluent growth; ++ indicates moderate growth; + indicates slight growth; − indicates no growth
Description: (§1) The following microbial strains were studied:
(§2) The biocides shown in Tables 4, 5 and 6 were added to the metal working fluid shown in each table and assessed for microbial resistance by a method based on ASTM E686-91: Standard Test Method for Evaluation of Antimicrobial Agents in Aqueous Metal Working Fluids as described below.
(§3) The metal working fluids used in the assessment were the same as those used in Examples 1 to 7.
(§4) Bacteria and fungi were gradually acclimatised to the metal working fluid. The organisms were grown up in biocide free metal working fluid (containing 50% (v/v) minimal broth) with aeration at 25° C. until microbial count reached 10^9 cfu/ml. Every 7 days each micro-organism was subcultured into 90 ml (10 ml inoculum) and re-incubated. Subculturing was done for a minimum of three cycles before use.
(§5) To 1I French square bottles, 900 ml of metal working fluid was added at use concentration (diluted to 5% with water of 125 ppm calcium hardness). 100 ml of inoculum was added and mixed (100 ml of total quantity was removed and discarded). The metal working fluid was allowed to sit undisturbed for 64 hours. The metal working fluid was mixed and sampled for microbiological testing.
(§6) Bacteria and fungi were enumerated by streaking an aliquot onto nutrient or malt agar as appropriate. The mixtures were aerated using capillary tubing to bubble air into the bottom of the bottle (introduced by means of a multi-valve air manifold). Antifoam was also added. After 5 days, the aeration was stopped and volume replaced with sterile distilled water. The mixture was allowed to sit for 64 hours and then mixed. 10 ml of inoculum was used to re-inoculate and all losses were replaced with Biocide containing metal working fluid. The pH of the metal working fluid was measured at start of test and every 7 days. […] Aeration was resumed and the regime repeated for a minimum of 6 weeks or until failure.

[2] = test system: Yeast and Fungi (Fusarium solani, Penicillium sp., Acremonium strictum, Geotrichum candidum); test: Microbial resistance test based on ASTM E686-91, fungal contamination in semi synthetic metal working fluid; type: cell-based; settings: for Fungal Contamination after (days) 10: 10 days; for Fungal Contamination after (days) 31: 31 days; for Fungal Contamination after (days) 87: 87 days; for Fungal Contamination after (days) 110: 110 days; as to all read-outs here: key: +++ indicates confluent growth; ++ indicates moderate growth; + indicates slight growth; − indicates no growth
Description: as §1, §2, §3, §4, §5, §6

[3] = test system: Fusarium solani (ATCC 58877/IMI 314228); test: MIC by doubling dilution in microtitre plate; type: cell-based
Description: The fungus Fusarium solani (ATCC 58877/IMI 314228) was grown in malt agar for 7-14 days at 25° C. to give a mycelial mat and the spores harvested from the surface using physiological saline to give a suspension containing about 10^6 fungal spores/ml. This was then diluted with malt broth to give a spore suspension containing 10^4 spores/ml. A 100 μl aliquot of this spore suspension was added to each well of a microtitre plate except for the first well which contained 180 μl.
A 20 μl aliquot of this solution was added to the first well of the microtitre plate and thoroughly mixed. 100 μl was withdrawn from the first well, added to the second well and mixed.

[4] = Temperature stability of biocide in semi-synthetic metal working fluid (storage at 50° C., HPLC); settings: Semi-synthetic metal working fluid Quaker fluid No. 12717
Description: The biocides shown in Table 1 were added to Trim C111A (ex. Master Chemical Corporation, USA, a synthetic water miscible cutting and grinding fluid used as coolant and lubricant in metal removal processes). The initial concentration of the biocide in the metal working fluid is shown in the third column of Table 1. The metal working fluid was then stored at 50° C. for 45 days.
The concentration of biocide remaining after storage was measured using reverse phase high performance liquid chromatography (HPLC) after initial sample preparation. In the case of 2-n-butyl-benzisothiazolin-3-one, 2-n-octyl-isothiazolin-3-one and 3-iodo-2-propynyl-N-butylcarbamate sample preparation involved solvent extraction of the active from the metal working fluid. For sodium pyrithione, initial sample preparation was derivatisation to produce a compound readily detectable by HPLC.
The stability of the biocides shown in Tables 2 and 3 in semi-synthetic and soluble oil metal working fluids was assessed using the same method described above in Example 1.

[5] = Temperature stability of biocide in soluble oil metal working fluid (storage at 50° C., HPLC)
[6] = Temperature stability of biocide in synthetic metal working fluid (storage at 50° C., HPLC); type: physicochemical; settings: Synthetic metal working fluid Trim C111A
Description: The biocides shown in Table 1 were added to Trim C111A (ex. Master Chemical Corporation, USA, a synthetic water miscible cutting and grinding fluid used as coolant and lubricant in metal removal processes). […] The metal working fluid was then stored at 50° C. for 45 days.

| SMILES | Fungal Contamination after (days) 10 ([1]; Conc. (a.i.) 75 ppm) | Fungal Contamination after (days) 31 ([1]; Conc. (a.i.) 75 ppm) | Fungal Contamination after (days) 87 ([1]; Conc. (a.i.) 75 ppm) | Fungal Contamination after (days) 110 ([1]; Conc. (a.i.) 75 ppm) | Fungal Contamination after (days) 10 ([1]; Conc. (a.i.) 150 ppm) | Fungal Contamination after (days) 31 ([1]; Conc. (a.i.) 150 ppm) | Fungal Contamination after (days) 87 ([1]; Conc. (a.i.) 150 ppm) | Fungal Contamination after (days) 110 ([1]; Conc. (a.i.) 150 ppm) | Fungal Contamination after (days) 10 ([2]; 75 ppm) | Fungal Contamination after (days) 31 ([2]; 75 ppm) | Fungal Contamination after (days) 87 ([2]; 75 ppm) | Fungal Contamination after (days) 110 ([2]; 75 ppm) | Fungal Contamination after (days) 10 ([2]; 150 ppm) | Fungal Contamination after (days) 31 ([2]; 150 ppm) | Fungal Contamination after (days) 87 ([2]; 150 ppm) | Fungal Contamination after (days) 110 ([2]; 150 ppm) | also measured |
| --- | --- | --- | --- | --- | --- | --- | --- | --- | --- | --- | --- | --- | --- | --- | --- | --- | --- |
| CCCCn1sc2ccccc2c1=O [BBIT, 2-n-butyl-1,2-benzisothiazolin-3-one] | − | − | − | − | − | − | − | − | − | − | + | + | − | − | − | − | Fungal Contamination after (days) 10 ([1]; Conc. (a.i.) 100 ppm): −; Fungal Contamination after (days) 31 ([1]; Conc. (a.i.) 100 ppm): −; Fungal Contamination after (days) 87 ([1]; Conc. (a.i.) 100 ppm): −; Fungal Contamination after (days) 110 ([1]; Conc. (a.i.) 100 ppm): −; Fungal Contamination after (days) 10 ([2]; 100 ppm): −; Fungal Contamination after (days) 31 ([2]; 100 ppm): −; Fungal Contamination after (days) 87 ([2]; 100 ppm): −; Fungal Contamination after (days) 110 ([2]; 100 ppm): −; MIC values ([3]; malt broth, visual inspection after 5 days at 25° C.): 6.4 ppm |
| CCCCNC(=O)OCC#CI [IPBC, 3-iodo-2-propynyl-N-n-butyl carbamate, reference compound] | − | − | − | − |  |  |  |  | − | − | − | − |  |  |  |  | % Remaining after storage at 50° C. for 45 days ([4]; initial concentration 5000 ppm): 0%; % Remaining after storage at 50° C. for 45 days ([5]; initial concentration 5000 ppm): 13% |
| CCCCCCCCn1sccc1=O [OIT, 2-n-octyl-isothiazolin-3-one] |  |  |  |  |  |  |  |  |  |  |  |  |  |  |  |  | % Remaining after storage at 50° C. for 45 days ([6]; initial concentration 2000 ppm): 0%; % Remaining after storage at 50° C. for 45 days ([4]; initial concentration 2000 ppm): 0% |
| [Na].[O-][n+]1ccccc1S [Sodium Omadine, sodium pyridine-2-thiol-1-oxide, reference compound] |  |  |  |  | ++ | +++ | +++ | +++ |  |  |  |  | − | − | + | + | % Remaining after storage at 50° C. for 45 days ([6]; initial concentration 2500 ppm): 0%; % Remaining after storage at 50° C. for 45 days ([4]; initial concentration 2500 ppm): 0%; MIC ([3]; ATCC58877, 120 h, read-out: MIC values): 18.5 µg/mL; % Remaining after storage at 50° C. for 45 days ([5]; initial concentration 2500 ppm): 0% |
